Test results: ChEMBL document CHEMBL1201862, “PubChem BioAssay data set” (2004)
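Dose response: 5 concentrations. Exposure: 48 h. Format: 96-well plates. Endpoint: linear interpolation; highest concentration if not reached. GI50: concentration for 50% inhibition of growth.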 Activity calls are given as the source filed them. Rule as the data show it: active = GI50 up to about 1.1 µM and inactive = higher.

Tests used:
Test in all cases: NCI tumour cell line growth inhibition, 48 h
A549 = system: A549
CAKI-1 = system: CAKI-1
EKVX = system: EKVX
HCC 2998 = system: HCC 2998
K562 = system: K562
LOX IMVI = system: LOX IMVI
NCI-H23 = system: NCI-H23
NCI-H460 = system: NCI-H460
OVCAR-3 = system: OVCAR-3
SK-MEL-28 = system: SK-MEL-28
SK-OV-3 = system: SK-OV-3
SN12C = system: SN12C
SNB-19 = system: SNB-19
SNB-75 = system: SNB-75
SW-620 = system: SW-620
TK-10 = system: TK-10
UACC-257 = system: UACC-257
UO-31 = system: UO-31
HL-60 = system: HL-60
RXF 393 = system: RXF 393

| SMILES | GI50 (A549) | GI50 (CAKI-1) | GI50 (EKVX) | GI50 (HCC 2998) | GI50 (K562) | GI50 (LOX IMVI) | GI50 (NCI-H23) | GI50 (NCI-H460) | GI50 (OVCAR-3) | GI50 (SK-MEL-28) | GI50 (SK-OV-3) | GI50 (SN12C) | GI50 (SNB-19) | GI50 (SNB-75) | GI50 (SW-620) | GI50 (TK-10) | GI50 (UACC-257) | GI50 (UO-31) | GI50 (HL-60) | GI50 (RXF 393) |
| --- | --- | --- | --- | --- | --- | --- | --- | --- | --- | --- | --- | --- | --- | --- | --- | --- | --- | --- | --- | --- |
| COC12OC3(C4OC41)C(C(=O)O[C@H]3CO[Si](C)(C)C(C)(C)C)C2C(=O)Oc1ccccc1 (stereo not given in full) | > 100 µM (inactive) | > 100 µM (inactive) | > 100 µM (inactive) | > 100 µM (inactive) | > 100 µM (inactive) | > 100 µM (inactive) | > 100 µM (inactive) | > 100 µM (inactive) | > 100 µM (inactive) | > 100 µM (inactive) | > 100 µM (inactive) | > 100 µM (inactive) | > 100 µM (inactive) | > 100 µM (inactive) | > 100 µM (inactive) | > 100 µM (inactive) | > 100 µM (inactive) | > 100 µM (inactive) |  |  |
| Cc1cc2nc3c(C(O)CO)nn(-c4ccccc4)c3nc2cc1C (stereo not given) | 12.9 µM (inactive) | 15.8 µM (inactive) | 19.6 µM (inactive) |  | 12.9 µM (inactive) | 20.5 µM (inactive) | 23 µM (inactive) | 12.7 µM (inactive) | 15.8 µM (inactive) | 20.7 µM (inactive) |  | 13.8 µM (inactive) | 22.9 µM (inactive) | 22.4 µM (inactive) | 20.5 µM (inactive) | 14 µM (inactive) | 22 µM (inactive) | 15.1 µM (inactive) | 21.6 µM (inactive) | 14.5 µM (inactive) |
| Cc1nc2c(nc1Cl)nc(Oc1ccc(Cl)cc1)c1ccccc12 | 34.6 µM (inactive) | > 100 µM (inactive) | > 100 µM (inactive) | > 100 µM (inactive) | > 100 µM (inactive) | 59.6 µM (inactive) | 45.8 µM (inactive) | 62.4 µM (inactive) | > 100 µM (inactive) | > 100 µM (inactive) | > 100 µM (inactive) | 43.6 µM (inactive) | 82.8 µM (inactive) | 26.7 µM (inactive) | 50.4 µM (inactive) |  | > 100 µM (inactive) | 27 µM (inactive) |  |  |
| Cc1nc(N(CCO)CCO)c2sc(=S)n(-c3ccccc3)c2n1 | > 100 µM (inactive) |  |  | > 100 µM (inactive) | > 100 µM (inactive) |  | > 100 µM (inactive) | > 100 µM (inactive) | > 100 µM (inactive) | > 100 µM (inactive) | > 100 µM (inactive) |  | > 100 µM (inactive) | 10.8 µM (inactive) | > 100 µM (inactive) | > 100 µM (inactive) | > 100 µM (inactive) | > 100 µM (inactive) | > 100 µM (inactive) |  |
| CN(C)c1cccc2c1C(=O)C=CC21CCc2ccc(N(C)C)c3c(N(C)C)ccc1c23 (stereo not given) | 18.1 µM (inactive) | 21.4 µM (inactive) | 20 µM (inactive) |  | 3.96 µM (inactive) | 15.1 µM (inactive) | 16.9 µM (inactive) | 9.04 µM (inactive) | 8.34 µM (inactive) | 15.4 µM (inactive) | 10.1 µM (inactive) | 12.2 µM (inactive) | 15.2 µM (inactive) | 4.8 µM (inactive) | 16.1 µM (inactive) | 14.6 µM (inactive) | 11.9 µM (inactive) | 11.9 µM (inactive) | 5.01 µM (inactive) | 7.38 µM (inactive) |
| O=C1C2c3[nH]c4ccccc4c3C3CCSCC3C2C(=O)N1c1ccccc1 (stereo not given) | > 100 µM (inactive) | > 100 µM (inactive) | > 100 µM (inactive) |  | 72.9 µM (inactive) | > 100 µM (inactive) | > 100 µM (inactive) | > 100 µM (inactive) | > 100 µM (inactive) | > 100 µM (inactive) | > 100 µM (inactive) | > 100 µM (inactive) | > 100 µM (inactive) | 15.9 µM (inactive) | > 100 µM (inactive) | > 100 µM (inactive) | > 100 µM (inactive) | > 100 µM (inactive) | > 100 µM (inactive) | 25.8 µM (inactive) |
| Cc1ccc(S(=O)(=O)NCCCSCCN)cc1 | > 100 µM (inactive) |  |  | > 100 µM (inactive) | > 100 µM (inactive) | < 0.01 µM (active) | > 100 µM (inactive) | > 100 µM (inactive) | > 100 µM (inactive) | > 100 µM (inactive) | > 100 µM (inactive) | > 100 µM (inactive) | > 100 µM (inactive) | > 100 µM (inactive) | > 100 µM (inactive) | > 100 µM (inactive) | > 100 µM (inactive) | > 100 µM (inactive) | > 100 µM (inactive) | > 100 µM (inactive) |
| C=C1CC(OC)(C(OC)C(=O)N[C@H]2OCO[C@H]3C2O[C@H](C[C@@H](COC)OC)C(C)(C)C3OC)O[C@H](C)[C@@H]1C (stereo not given in full) | 0.693 µM (active) | 0.916 µM (active) |  |  | 0.815 µM (active) | 0.617 µM (active) | 1.18 µM (inactive) | 0.746 µM (active) | 0.755 µM (active) | 0.764 µM (active) | 1.06 µM (active) | 0.746 µM (active) | 0.611 µM (active) | 1.21 µM (inactive) | 0.859 µM (active) |  | 1.1 µM (active) | 0.759 µM (active) | 0.412 µM (active) | 0.995 µM (active) |
| C[N+](C)(C)/C=N\c1cccc2c1CCCC2 | 72.9 µM (inactive) | > 100 µM (inactive) | > 100 µM (inactive) |  | 18 µM (inactive) | 55.3 µM (inactive) | 79.6 µM (inactive) |  | > 100 µM (inactive) | > 100 µM (inactive) | > 100 µM (inactive) | > 100 µM (inactive) | > 100 µM (inactive) | 56.5 µM (inactive) |  | > 100 µM (inactive) | 45.1 µM (inactive) | > 100 µM (inactive) | 0.0885 µM (active) | > 100 µM (inactive) |
| Cc1c(Cc2ccccc2)n(COCCCO)c(=O)[nH]c1=O | > 100 µM (inactive) | > 100 µM (inactive) | > 100 µM (inactive) | > 100 µM (inactive) | > 100 µM (inactive) | > 100 µM (inactive) | > 100 µM (inactive) | > 100 µM (inactive) | > 100 µM (inactive) | > 100 µM (inactive) | > 100 µM (inactive) | > 100 µM (inactive) | > 100 µM (inactive) | > 100 µM (inactive) | > 100 µM (inactive) | > 100 µM (inactive) | > 100 µM (inactive) | > 100 µM (inactive) |  | > 100 µM (inactive) |
| N#Cc1c(-c2ccccc2)c(CN2CCCCC2)c(=O)n2c1[nH]c1ccccc12 | 26.7 µM (inactive) | 26.3 µM (inactive) |  | 53.8 µM (inactive) | 24.7 µM (inactive) | 20.7 µM (inactive) | 37.9 µM (inactive) | 25.9 µM (inactive) | 20.4 µM (inactive) | 69.5 µM (inactive) | 71 µM (inactive) | 25.1 µM (inactive) | 25.9 µM (inactive) | 81.1 µM (inactive) | 54.3 µM (inactive) | 28.4 µM (inactive) | 42 µM (inactive) | 26.7 µM (inactive) |  | 32.5 µM (inactive) |
